Measurements: patent publication US11001570B2, “6-amino-quinolinone compounds and derivatives as BCL6 inhibitors” (Boehringer Ingelheim International GmbH, priority 2016, dated 2021)

Each molecule was assayed against T1, BCL6::BCOR (Homo sapiens, UniProt P41182, C67R/C84N/C8Q) (assay: BCL6::BCOR ULight TR-FRET assay).
T1 construct: BCL6 (amino acids 5 to 129, with the following changes to the natural protein); made in house; host or cells: E. coli
Type: binding
Method in brief: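 Biotin-Avi BCL6 (aa 5–129, C8Q/C67R/C84N; E. coli), 1 nM, preincubated 30 min RT with compound (11-point fivefold series, top 100 μM) in HEPES pH 7.3 buffer; then 100 nM ULight-BCOR peptide plus 0.75 nM streptavidin-Eu added, 240 min RT. TR-FRET read, normalized to DMSO controls with/without BCL6.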

| Structure (SMILES) | IC50 |
| --- | --- |
| CNC(=O)COc1cc2cc(Nc3nc(N4C[C@@H](C)N(C)[C@@H](C)C4)ncc3Cl)ccc2n(C)c1=O [Compound I-48] | 11 nM |
| CC1CN(c2ncc(Cl)c(Nc3ccc4c(c3)cc(OCC(=O)O)c(=O)n4C)n2)CCS1 (stereo not drawn) [Compound I-114] | 9 nM |
| CCCn1c(=O)c(OCC(=O)NC)cc2cc(Nc3nc(N4CCC(F)CC4)ncc3Cl)ccc21 [Compound I-80] | 7 nM |
| CNC(=O)COc1cc2cc(Nc3nc(N4C[C@H](C)C[C@H](C)C4)ncc3F)ccc2n(C)c1=O [Compound I-23] | 9 nM |
| CNC(=O)COc1cc2cc(Nc3nc(N4CCC(F)(F)CC4)ncc3Cl)cc(OC)c2n(C)c1=O [Compound I-97] | 4 nM |
| CNC(=O)COc1cc2cc(Nc3nc(N4CCC[C@@H](C)C4)ncc3Cl)ccc2n(C)c1=O [Compound I-70] | 7 nM |
| CNC(=O)COc1cc2cc(Nc3nc(N4CCC5CN(Cc6ccccc6)CC54)ncc3Cl)ccc2n(C)c1=O (stereo not drawn) [Compound I-125] | 10 nM |
| CNC(=O)COc1cc2cc(Nc3nc(N4C[C@H](C)C[C@@H](NC)C4)ncc3Cl)ccc2n(C)c1=O [Compound I-8, 2-{[6-({5-chloro-2-[(3R,5R)-3-methyl-5-(methylamino)piperidin-1-yl]pyrimidin-4-yl}amino)-1-methyl-2-oxo-1,2-dihydroquinolin-3-yl]oxy}-N-methylacetamide] | 21 nM |
| CN(C)C(=O)C1CCN(c2ncc(Cl)c(Nc3ccc4c(c3)cc(OCC(=O)O)c(=O)n4C)n2)CC1 [Compound I-152, 2-{[6-({5-chloro-2-[4-(dimethylcarbamoyl)piperidin-1-yl]pyrimidin-4-yl}amino)-1-methyl-2-oxo-1,2-dihydroquinolin-3-yl]oxy}acetic acid] | 5 nM |
| CNC(=O)COc1cc2cc(Nc3nc(N4C[C@H](C)C[C@H](C)C4)ncc3Cl)cc(OC)c2n(C)c1=O [Compound I-99] | 7 nM |
| CNC(=O)COc1cc2cc(Nc3nc(N4CCC(Cl)CC4)ncc3Cl)ccc2n(C)c1=O [Compound I-34] | 6 nM |
| CNC(=O)COc1cc2cc(Nc3nc(N4CCCC[C@H]4C)ncc3Cl)ccc2n(C)c1=O [Compound I-17] | 8 nM |
| CNC(=O)COc1cc2cc(Nc3nc(N4CCOC(C)(C)C4)ncc3Cl)ccc2n(C)c1=O [Compound I-50] | 5 nM |
| CCNC(=O)COc1cc2cc(Nc3nc(N4C[C@H](C)C[C@H](C)C4)ncc3Cl)ccc2n(C)c1=O [Compound I-137] | 21 nM |
| CCn1c(=O)c(OCC(=O)NC)cc2cc(Nc3nc(N4CCC[C@@H](C)C4)ncc3Cl)ccc21 [Compound I-77] | 8 nM |
